# Reference: patent US20040171489A1, “Synergistic active compound combinations for controlling harmful plants” (priority 1998, published 2004)
# Legend:
# Alopecurus myosuroides = experiment: Example 9 field trials, application 1-3 leaf stage broad-leaved weeds: herbicidal effect; type: in vivo; settings: 120 to 160 days after application
# Description: (§1) The herbicidal efficacy of the active compounds or active compound mixtures was scored visually using the treated plots in comparison to untreated control plots. The damage and development of all above-ground parts of the plants were recorded. Scoring was carried out using a percentage scale (100% effect=all plants killed; 50% effect=50% of the plants and the green parts of the plants killed; 0% effect=no noticeable effect=like control plot. The scores of in each case 4 plots were averaged.
# (§2) If the observed activity values already exceed the formal sum of the values for the trials with the individual applications, they also exceed the expected value according to Colby which is calculated using the following formula and which is likewise considered to be an indication of synergism (cf. S. R. Colby; in Weeds 15 (1967) p. 20 to 22):
# (§3) Crop plants were grown outdoors on plots under natural outdoor conditions, and seeds or rhizome pieces of typical harmful plants were laid out or the natural weed growth was utilized. Treatment with the compositions according to the invention was carried out after the harmful plants had emerged and the crop plants were, generally, at the 2- to 4-leaf stage; in some cases (as stated), application of individual active compounds or active compound combinations was carried out pre-emergence (cf. Section 1) or post-emergence (cf. Section 2) or as a sequential treatment partly pre-emergence and/or post-emergence. After the application, for example 2, 4, 6 and 8 weeks after the application, the effect of the preparations was scored visually by comparison with untreated controls (cf. scoring in Section 1). In the field trial as well, the compositions according to the invention have synergistic herbicidal activity against a broad spectrum of economically important weed grasses and broad-leaved weeds. […] Moreover, the effects in essential phases of the scoring period were above the expected values according to Colby, also indicating synergism. In contrast, the crop plants were, as a consequence of the treatments with the herbicidal compositions, damaged only to a small degree, if at all.
# Capsella bursa-pastoris = experiment: as above; type: in vivo; settings: 120 to 160 days after application
# Description: as §1, §2, §3
# winter wheat [1] = experiment: Example 9 field trials, application 1-3 leaf stage broad-leaved weeds: crop damage; type: in vivo, Triticum aestivum
# Description: as §1, §2
# as §3, with “In contrast, the crop plants were, as a consequence of the treatments with the herbicidal compositions, damaged only to a small degree, if at all.” left out
# winter barley [2] = experiment: as above; type: in vivo, Hordeum vulgare
# Description: as §1, §2
# as §3, with “In contrast, the crop plants were, as a consequence of the treatments with the herbicidal compositions, damaged only to a small degree, if at all.” left out
# winter wheat [3] = experiment: Example 8 field trial, 4-leaf stage: crop damage; type: in vivo, Triticum aestivum; settings: 28 days after application
# Description: as §1, §2
# as §3, with “In contrast, the crop plants were, as a consequence of the treatments with the herbicidal compositions, damaged only to a small degree, if at all.” left out
# Veronica hederofolia = experiment: Example 8 field trial, 4-leaf stage: herbicidal effect; type: in vivo; settings: 28 days after application
# Description: as §1, §2
# as §3, with “In contrast, the crop plants were, as a consequence of the treatments with the herbicidal compositions, damaged only to a small degree, if at all.” left out
# winter barley [4] = experiment: Example 1 field trial, 2-4 leaf stage: crop damage; type: in vivo, Hordeum vulgare; settings: winter barley (Hordeum vulgare), in vivo, 28 days
# Description: as §1, §2, §3
# Papaver rhoeas = experiment: Example 1 field trial, 2-4 leaf stage: herbicidal effect; type: in vivo; settings: 1000 g of ai/ha; 28 days after application
# Description: as §1, §2, §3
# Galium aparine = experiment: Example 10 pre-emergence application, fall: herbicidal effect; type: in vivo; settings: 1000 g of ai/ha; 169 days after application
# Excerpt: (§4) Seeds or rhizome pieces of monocotyledonous and dicotyledonous weed plants are placed in sandy loam soil in pots and covered with soil. The compositions, formulated in the form of concentrated aqueous solutions, wettable powders or emulsion concentrates, are then applied to the surface of the soil cover as aqueous solution, suspension or emulsion at an application rate of 600 to 800 l of water/ha (converted), in various dosages. After the treatment, the pots are placed in a greenhouse and kept under good growth conditions for the weeds. After the test plants have emerged, the damage to the plants or the negative effects on the emergence is scored visually after a test period of 3 to 4 weeks by comparison with untreated controls. As shown by the test results, the compositions according to the invention have good herbicidal pre-emergence activity against a broad spectrum of weed grasses and broad-leaved weeds.
# as §1, §2, §3
# winter wheat [5] = experiment: Example 10 pre-emergence application, fall: crop damage; type: in vivo, Triticum aestivum; settings: winter wheat (Triticum aestivum), in vivo, 169 days
# Excerpt: as §4, §1, §2, §3
# Monochoria vaginalis = experiment: Example 22 field trial, 2-leaf stage: herbicidal effect; type: in vivo; settings: 14 days after application
# Description: as §1, §2, §3
# Oryza sativa (rice) [6] = experiment: Example 22 field trial, 2-leaf stage: crop damage; type: in vivo
# Description: as §1, §2, §3
# summer wheat = experiment: Example 13 field trial, 2- to 4-leaf stage: crop damage; type: in vivo, Triticum aestivum; settings: in vivo
# Description: as §1, §2, §3
# Sorghum verticilliflorum = experiment: Example 13 field trial, 2- to 4-leaf stage: herbicidal effect; type: in vivo; settings: 12.5 g of ai/ha; 17 days after application
# Description: as §1, §2, §3
# Lamium amolexicaule = experiment: Example 15 field trial, 2- to 4-leaf stage: herbicidal effect; type: in vivo; settings: 28 days after application
# Description: as §1, §2, §3
# winter wheat [7] = experiment: Example 15 field trial, 2- to 4-leaf stage: crop damage; type: in vivo, Triticum aestivum; settings: 28 days after application
# Description: as §1, §2, §3
# Oryza sativa (rice) [8] = experiment: Example 20 field trial, 3-leaf stage: crop damage; type: in vivo; settings: in vivo
# Description: as §1, §2, §3
# Euphorbia heterophylla = experiment: Example 20 field trial, 3-leaf stage: herbicidal effect; type: in vivo; settings: 31 days after application
# Description: as §1, §2, §3
# [9] = 100 g of ai/ha, 120 to 160 days after application
smiles,measurement,setting,value
"CC(C)(F)c1nc(N)nc(NC(CCCc2ccccc2)C2CC2)n1 (centres unmarked) [(A2), 4-amino-6-(1-fluoro-1-methylethyl)-2-(4-phenyl-1-cyclopropylbutylamino)-1,3,5-triazine]","herbicidal effect, ALOMY",Alopecurus myosuroides; 100 g of ai/ha,0%
same,"herbicidal effect, CAPBP",Capsella bursa-pastoris; 100 g of ai/ha,90%
same,"damage, TRZAW",winter wheat [1]; [9],0%
same,"damage, HORVW",winter barley [2]; [9],0%
"COc1cc(Cl)cc(OCC(C)Nc2nc(N)nc(C(C)(C)F)n2)c1 (centres unmarked) [(A5), 4-amino-6-(1-fluoro-1-methylethyl)-2-[2-(3-chloro-5-methoxyphenoxy)-1-methylethylamino]-1,3,5-triazine]","damage, TRZAW",winter wheat [3]; 25 g of ai/ha,0%
same,"damage, TRZAW",winter wheat [3]; 50 g of ai/ha,0%
same,"damage, TRZAW",winter wheat [3]; 100 g of ai/ha,0%
same,"herbicidal effect, VERHE",Veronica hederofolia; 25 g of ai/ha,14%
same,"herbicidal effect, VERHE",Veronica hederofolia; 50 g of ai/ha,22%
same,"herbicidal effect, VERHE",Veronica hederofolia; 100 g of ai/ha,34%
"CC(C)c1ccc(NC(=O)N(C)C)cc1 [(B1.1.1), isoproturon, reference compound]","damage, HORVW",winter barley [4],0%
same,"herbicidal effect, PAPRH",Papaver rhoeas,15%
same,"herbicidal effect, ALOMY",Alopecurus myosuroides; 2000 g of ai/ha,0%
same,"herbicidal effect, CAPBP",Capsella bursa-pastoris; 2000 g of ai/ha,0%
same,"damage, TRZAW","winter wheat [1]; winter wheat (Triticum aestivum), in vivo",0%
same,"herbicidal effect, GALAP",Galium aparine,15%
same,"damage, TRZAW",winter wheat [5],0%
same,"damage, HORVW","winter barley [2]; winter barley (Hordeum vulgare), in vivo",0%
"CCC(CC)Nc1c([N+](=O)[O-])cc(C)c(C)c1[N+](=O)[O-] [(B1.2.2), pendimethalin]","herbicidal effect, GALAP",Galium aparine,30%
"COP(=S)(OC)SCC(=O)N(c1ccc(Cl)cc1)C(C)(C)C [(B1.6.5), anilofos, reference compound]","herbicidal effect, MOOVA",Monochoria vaginalis; 250 g of ai/ha,95%
same,"damage, ORYSA","Oryza sativa (rice) [6]; 250 g of ai/ha, 14 days after application",5%
"C#CCN(C)c1c(C#N)cnn1-c1nn2c(c1Cl)CCCC2 [(B1.6.14), reference compound]","herbicidal effect, MOOVA",Monochoria vaginalis; 25 g of ai/ha,82%
same,"damage, ORYSA",Oryza sativa (rice) [6]; in vivo,0%
"COC(=O)c1ccccc1S(=O)(=O)NC(=O)N(C)c1nc(C)nc(OC)n1 [(B2.1.1), tribenuron-methyl]","damage, TRZAS",summer wheat,0%
same,"herbicidal effect, SORVE",Sorghum verticilliflorum,0%
"COc1cc(OC)nc(NC(=O)NS(=O)(=O)N(C)S(C)(=O)=O)n1 [(B2.1.4), amidosulfuron, reference compound]","herbicidal effect, LAMAM",Lamium amolexicaule; 12.5 g of ai/ha,10%
same,"herbicidal effect, LAMAM",Lamium amolexicaule; 25 g of ai/ha,25%
same,"damage, TRZAW",winter wheat [7]; 12.5 g of ai/ha,0%
same,"damage, TRZAW",winter wheat [7]; 25 g of ai/ha,0%
"CCOc1ccccc1OS(=O)(=O)NC(=O)Nc1nc(OC)cc(OC)n1 [(B2.1.9), ethoxysulfuron, reference compound]","damage, ORYSA",Oryza sativa (rice) [8],0%
same,"herbicidal effect, EPHHL",Euphorbia heterophylla; 22.5 g of ai/ha,45%
same,"herbicidal effect, EPHHL",Euphorbia heterophylla; 45 g of ai/ha,65%
